For 19 compounds, SC150 results are on record in patent EP4737449A1 (Changchun Genescience Pharmaceutical Co., Ltd., priority 2023, dated 2025).

In the test the target is T1, p53-Y220C mutant protein (Homo sapiens, UniProt P04637, Y220C).
T1 construct: The recombinant Y220C p53 DBD protein with his-tag
The test is described as follows: In vitro DNA binding activity assay (TR-FRET). Type of test: biochemical. Particulars: concentration required to increase the binding activity of protein to DNA by 50%. The method, then: The activity of the compound to modulate the binding of the p53-Y220C mutant protein to DNA was detected using TR-FREt (Time-Resolved Fluorescence Resonance Energy Transfer). The recombinant Y220C p53 DBD protein with his-tag and the DNA sequence with biotin label were prepared firstly. Donor Eu(Europium)-SA(Streptavidin) can be bound to the DNA sequence through biotin, receptor for his antibody attached to alphaphycocyanin(APC, allophycocyanin), and his antibody can be bound to the Y220C p53 DBD protein with his-tag. When exposed to an excitation light with a wavelength of 340 nm, the donor Eu(Europium)-SA(Streptavidin) can emit fluorescence with a wavelength of 615 nm. If the donor and the receptor are close to each other, the donor will transfer part of the energy to the receptor and produce fluorescence with a wavelength of 665 nm. […] If there is no interaction, only 615 nm fluorescence is produced. • 1) Experimental steps • a. Adding 4 µL of dilute compound solution to each well of a 384-well microplate; • a. Adding 4 µL of 4X P53 working solution to each well of the 384-well microplate; • c. Sealing the 384-well microplate and equilibrating the system at room temperature for 60 min; • d. Adding 4 µl of biotin DNA solution to the 384-well microplate; • e. Adding 4 µl of 4X test solution (MAb Anti-6His-Eu and streptavidin-d2) to each well of the 384-well microplate; • f. Incubating overnight in the dark; and • g. Reading data of 665 nm and 615 nm wavelengths on the BMG multifunctional microplate reader. • 2) Data analysis • a. Calculating the ratio for each well (Ratio665 nm/615 nm-Ratiobackground); • b. Calculating the activity percentage (%activity) as follows: C = (Ave_Ac−Ave_Ba)/(Ave_Dc−Ave_Bd) [formula] R data = (A−Ave_Ba−CD)/(D−Ave_Bd)*(Ave_Dc−Ave_Bd) [formula] % Activity = R data/Ave_VC*100 [formula] • A: Fluorescence intensity of the sample at 665 nm; D: Fluorescence intensity of the sample at 615 nm; • Ba: Background fluorescence intensity of the culture plate at 665 nm; Bd: Background fluorescence intensity of the culture plate at 615 nm; • Dc: Background fluorescence intensity of HIS-E at 615 nm; Ac: Background fluorescence intensity of streptavidin-d2 at 665 nm); and • c. Calculating SC150 and plotting dose-effect curve
Compared to the absence of the compound of the present invention, the activation percentage of binding of the p53 mutant protein to DNA in the presence of the compound of the present invention is expressed as SC150, which indicates the concentration of the compound required to increase the DNA binding activity of the p53 mutant protein by 50%. The SC150 is calculated using Prism™.
For orientation: TR-FRET usually uses a lanthanide donor and a delayed reading to cut background.
With `CN(C)C1CC[C@@H](Nc2cccc3c(CC(F)(F)F)c(C#CCNC(=O)c4cnn(C(C)(C)C)c4N)nn23)[C@@H](F)C1` (single isomer, unassigned) [Compound 358-B], the SC150 was 32 nM. `CN1CCCC(Nc2cccc3c(CC(F)(F)F)c(C#CCNC(=O)c4cnn(C(C)(C)C)c4N)nn23)CC1` (single isomer, unassigned) [Compound 369-A, 5-amino-1-tert-butyl-N-(3-(7-[(1-methylazepan-4-yl)amino]-3-(2,2,2-trifluoroethyl)pyrazolo[1,5-a]pyridin-2-yl)prop-2-yn-1-yl)-1H-pyrazole-4-carboxamide] registered an SC150 of 8 nM. For the compound `CN1CCCC(Nc2cccc3c(CC(F)(F)F)c(C#CCNC(=O)c4cnn(C(C)(C)C)c4N)nn23)CC1` (single isomer, unassigned) [Compound 369-B, 5-amino-1-tert-butyl-N-(3-(7-[(1-methylazepan-4-yl)amino]-3-(2,2,2-trifluoroethyl)pyrazolo[1,5-a]pyridin-2-yl)prop-2-yn-1-yl)-1H-pyrazole-4-carboxamide], the SC150 is on record as 5 nM. The same measure for `CN1CC[C@@H](Nc2cccc3c(CC(F)(F)F)c(C#CCNC(=O)c4cnn(C5CC5)c4)nn23)[C@@H](F)C1` [Compound 005, 1-cyclopropyl-N-[3-(7-{[(3S,4R)-3-fluoro-1-methylpiperidin-4-yl]amino}-3-(2,2,2-trifluoroethyl)pyrazolo[1,5-a]pyridin-2-yl)prop-2-yn-1-yl]-1H-pyrazole-4-carboxamide]: 16 nM. In the case of `CN1CC[C@@H](Nc2cccc3c(CC(F)(F)F)c(C#CCNC(=O)c4cnn(C5CCC5)c4)nn23)[C@@H](F)C1` [Compound 006, 1-cyclobutyl-N-[3-(7-{[(3S,4R)-3-fluoro-1-methylpiperidin-4-yl]amino}-3-(2,2,2-trifluoroethyl)pyrazolo[1,5-a]pyridin-2-yl)prop-2-yn-1-yl]-1H-pyrazole-4-carboxamide] it was 11 nM. The same measure for `CN1CC[C@@H](Nc2cccc3c(CC(F)(F)F)c(C#CCNC(=O)c4cnn(C5CCCC5)c4)nn23)[C@@H](F)C1` [Compound 007, 1-cyclopentyl-N-[3-(7-{[(3S,4R)-3-fluoro-1-methylpiperidin-4-yl]amino}-3-(2,2,2-trifluoroethyl)pyrazolo[1,5-a]pyridin-2-yl)prop-2-yn-1-yl]-1H-pyrazole-4-carboxamide]: 11 nM; for `CN1CC[C@@H](Nc2cccc3c(CC(F)(F)F)c(C#CCNC(=O)c4cnn(C5COC5)c4)nn23)[C@@H](F)C1` [Compound 009, N-[3-(7-{[(3S,4R)-3-fluoro-1-methylpiperidin-4-yl]amino}-3-(2,2,2-trifluoroethyl)pyrazolo[1,5-a]pyridin-2-yl)prop-2-yn-1-yl]-1-(oxetan-3-yl)-1H-pyrazole-4-carboxamide]: 7 nM; for `CN1CC[C@@H](Nc2cccc3c(CC(F)(F)F)c(C#CCNC(=O)c4cnn(C5(C)CC5)c4)nn23)[C@@H](F)C1` [Compound 010, N-[3-(7-{[(3S,4R)-3-fluoro-1-methylpiperidin-4-yl]amino}-3-(2,2,2-trifluoroethyl)pyrazolo[1,5-a]pyridin-2-yl)prop-2-yn-1-yl]-1-(1-methylcyclopropyl)-1H-pyrazole-4-carboxamide]: 9 nM. `CN1CCC(n2cc(C(=O)NCC#Cc3nn4c(N[C@@H]5CCN(C)C[C@@H]5F)cccc4c3CC(F)(F)F)cn2)CC1` [Compound 012, N-[3-(7-{[(3S,4R)-3-fluoro-1-methylpiperidin-4-yl]amino}-3-(2,2,2-trifluoroethyl)pyrazolo[1,5-a]pyridin-2-yl)prop-2-yn-1-yl]-1-(1-methylpiperidin-4-yl)-1H-pyrazole-4-carboxamide]: the SC150 is given as 4 nM.

In the case of `CN1CC[C@@H](Nc2cccc3c(CC(F)(F)F)c(C#CCNC(=O)c4cnn(C5CCOCC5)c4)nn23)[C@@H](F)C1` [Compound 013, N-[3-(7-{[(3S,4R)-3-fluoro-1-methylpiperidin-4-yl]amino}-3-(2,2,2-trifluoroethyl)pyrazolo[1,5-a]pyridin-2-yl)prop-2-yn-1-yl]-1-((tetrahydro-2H-pyran-4-yl))-1H-pyrazole-4-carboxamide], the SC150 was found to be 7 nM. The compound `CN1CC[C@@H](Nc2cccc3c(CC(F)(F)F)c(C#CCNC(=O)c4cnn(C5(C)CCOCC5)c4)nn23)[C@@H](F)C1` [Compound 014] displayed an SC150 of 13 nM. Compound `CN1CC[C@@H](Nc2cccc3c(CC(F)(F)F)c(C#CCNC(=O)c4cnn(-c5ccccc5)c4)nn23)[C@@H](F)C1` [Compound 015, N-[3-(7-{[(3S,4R)-3-fluoro-l-methylpiperidin-4-yl]amino}-3-(2,2,2-trifluoroethyl)pyrazolo[1,5-a]pyridin-2-yl)prop-2-yn-1-yl]-1-phenyl-1H-pyrazole-4-carboxamide] registered an SC150 of 62 nM.

On to `COCC(C)(C)n1cc(C(=O)NCC#Cc2nn3c(N[C@@H]4CCN(C)C[C@@H]4F)cccc3c2CC(F)(F)F)cn1` [Compound 022, N-[3-(7-{[(3S,4R)-3-fluoro-1-methylpiperidin-4-yl]amino}-3-(2,2,2-trifluoroethyl)pyrazolo[1,5-a]pyridin-2-yl)prop-2-yn-1-yl]-1-(1-methoxy-2-methylpropan-2-yl)-1H-pyrazole-4-carboxamide], for which the SC150 worked out at 8 nM.

`CN1CC[C@@H](Nc2cccc3c(CC(F)(F)F)c(C#CCNC(=O)c4cnn(C(F)(F)F)c4)nn23)[C@@H](F)C1` [Compound 024, N-[3-(7-{[(3S,4R)-3-fluoro-1-methylpiperidin-4-yl]amino}-3-(2,2,2-trifluoroethyl)pyrazolo[1,5-a]pyridin-2-yl)prop-2-yn-1-yl]-1-(trifluoromethyl)-1H-pyrazole-4-carboxamide] showed an SC150 of 58 nM. In the case of `CC(n1cc(C(=O)NCC#Cc2nn3c(N[C@@H]4CCN(C)C[C@@H]4F)cccc3c2CC(F)(F)F)cn1)C(F)(F)F` (stereo partly drawn) [Compound 029, N-[3-(7-{[(3S,4R)-3-fluoro-1-methylpiperidin-4-yl]amino}-3-(2,2,2-trifluoroethyl)pyrazolo[1,5-a]pyridin-2-yl)prop-2-yn-1-yl]-1-(1,1,1-trifluoroprop-2-yl)-1H-pyrazole-4-carboxamide] it was 15 nM. In the case of `CN1CC[C@@H](Nc2cccc3c(CC(F)(F)F)c(C#CCNC(=O)c4cnn(CC(F)(F)F)c4)nn23)[C@@H](F)C1` [Compound 030] it was 18 nM; in that of `COc1nn(C(C)(C)C)cc1C(=O)NCC#Cc1nn2c(N[C@@H]3CCN(C)C[C@@H]3F)cccc2c1CC(F)(F)F` [Compound 043], 86 nM. In the case of `COc1cccc(C(=O)NCC#Cc2nn3c(N[C@@H]4CCN(C)C[C@@H]4F)cccc3c2CC(F)(F)F)c1` [Compound 072, N-[3-(7-{[(3S,4R)-3-fluoro-1-methylpiperidin-4-yl]amino}-3-(2,2,2-trifluoroethyl)pyrazolo[1,5-a]pyridin-2-yl)prop-2-yn-1-yl]-3-methoxybenzamide] it was 41 nM; in that of `CN1CC[C@@H](Nc2cccc3c(CC(F)(F)F)c(C#CCNC(=O)c4ccccn4)nn23)[C@@H](F)C1` [Compound 075, N-[3-(7-{[(3S,4R)-3-fluoro-1-methylpiperidin-4-yl]amino}-3-(2,2,2-trifluoroethyl)pyrazolo[1,5-a]pyridin-2-yl)prop-2-yn-1-yl]pyridine-2-carboxamide], 95 nM.
